Legend:
Type in all cases: functional
Conditions in all cases: Oryctolagus cuniculus
[1] = system: Platelet; experiment: Inhibition of thrombin-induced rabbit platelet aggregation at 100 ug/ml
[2] = system: Platelet; experiment: Inhibition of collagen-induced rabbit platelet aggregation at 100 ug/ml
[3] = system: Platelet; experiment: Inhibition of arachidonic acid-induced rabbit platelet aggregation at 100 ug/ml
[4] = system: Platelet; experiment: Inhibition of platelet-activating factor-induced rabbit platelet aggregation at 100 ug/ml
[5] = system: Platelet; experiment: Inhibition of collagen-induced rabbit platelet aggregation at 50 ug/ml
[6] = system: Platelet; experiment: Inhibition of arachidonic acid-induced rabbit platelet aggregation at 50 ug/ml
[7] = system: Platelet; experiment: Inhibition of arachidonic acid-induced rabbit platelet aggregation at 10 ug/ml
[8] = system: Platelet; experiment: Inhibition of collagen-induced rabbit platelet aggregation at 10 ug/ml
[9] = system: Platelet; experiment: Inhibition of arachidonic acid-induced rabbit platelet aggregation at 20 ug/ml
[10] = system: Platelet; experiment: Inhibition of collagen-induced rabbit platelet aggregation at 20 ug/ml

Work on COc1c(O)cc2c3c(cc4ccc(O)cc4c13)NC2=O [ARISTOLACTAM AIIIA] yielded an inhibition at 100 µg/mL [1] of 90.6%, an inhibition at 100 µg/mL [2] of 39.6% and an inhibition at 100 µg/mL [3] of 56.9%. It also gave an inhibition at 100 µg/mL [4] of 80.7%.

With COc1c(O)cc2c3c(cc4ccccc4c13)NC2=O [ARISTOLACTAM AII] the inhibition at 100 µg/mL [1] was 90%, the inhibition at 100 µg/mL [2] was 82.5% and the inhibition at 100 µg/mL [3] was 86.3%. The inhibition at 100 µg/mL [4] was 78.3%.

COc1ccc2cc3c4c(cc(OC)c(OC)c4c2c1)C(=O)N3 [ARISTOLACTAM BIII] showed an inhibition at 100 µg/mL [1] of 89.3%, an inhibition at 50 µg/mL [5] of 59.1% and an inhibition at 100 µg/mL [2] of 0%. It also gave an inhibition at 100 µg/mL [3] of 71.9%, an inhibition at 50 µg/mL [6] of 86.6% and an inhibition at 100 µg/mL [4] of 60.6%.

COc1c(O)c(OC)c2c3c(cc4ccccc42)NC(=O)c13 [ARISTOLACTAM F II] showed an inhibition at 100 µg/mL [1] of 83.9%, an inhibition at 50 µg/mL [5] of 14.5% and an inhibition at 10 µg/mL [7] of 85.4%. It also gave an inhibition at 100 µg/mL [2] of 9.7%, an inhibition at 10 µg/mL [8] of 81.7% and an inhibition at 20 µg/mL [9] of 52.5%. It also gave an inhibition at 100 µg/mL [3] of 8.5%, an inhibition at 50 µg/mL [6] of 16.5% and an inhibition at 20 µg/mL [10] of 81.7%. It also gave an inhibition at 100 µg/mL [4] of 6.7%.

CC(=O)Oc1ccccc1C(=O)O [ASPIRIN] was tested, and the inhibition at 100 µg/mL [2] was 87.8%, the inhibition at 100 µg/mL [3] was 0% and the inhibition at 100 µg/mL [4] was 90.4%.

In the case of COc1cccc2c1c(OC)c1c3c(cc(O)c(OC)c32)C(=O)N1 [ENTEROCARPAM I], the inhibition at 100 µg/mL [1] is reported as 86.5%, the inhibition at 50 µg/mL [5] is reported as 25.8% and the inhibition at 10 µg/mL [7] is reported as 83.5%. For the same compound, the inhibition at 100 µg/mL [2] was 43%, the inhibition at 10 µg/mL [8] was 83.7% and the inhibition at 20 µg/mL [9] was 46.4%. The inhibition at 100 µg/mL [3] was 2.2%, the inhibition at 50 µg/mL [6] was 13.5% and the inhibition at 20 µg/mL [10] was 72.9%. For the same compound, the inhibition at 100 µg/mL [4] was 70.8%.

For COc1cc2c3c(cc4ccc(O)cc4c3c1OC)NC2=O [GONIOTHALACTAM], the inhibition at 100 µg/mL [1] was 89.8%, the inhibition at 50 µg/mL [5] was 17.3% and the inhibition at 10 µg/mL [7] was 85.9%. For the same compound, the inhibition at 100 µg/mL [2] was 10.5%, the inhibition at 10 µg/mL [8] was 83% and the inhibition at 20 µg/mL [9] was 81.6%. The inhibition at 100 µg/mL [3] was 13.6%, the inhibition at 50 µg/mL [6] was 50.4% and the inhibition at 20 µg/mL [10] was 75.9%. It also gave an inhibition at 100 µg/mL [4] of 67.3%.

Compound COc1c(O)cc2c3c(cc4ccccc4c13)NC(=O)C2=O [NORARISTOLODIONE] has an inhibition at 100 µg/mL [1] of 88.7%, an inhibition at 50 µg/mL [5] of 72% and an inhibition at 100 µg/mL [2] of 40.6%. It also gave an inhibition at 100 µg/mL [3] of 65.8%, an inhibition at 20 µg/mL [10] of 84.7% and an inhibition at 100 µg/mL [4] of 82.5%.

Work on COc1cc2c3c(cc4ccccc4c3c1O)NC2=O [PIPEROLACTAM A] yielded an inhibition at 100 µg/mL [1] of 84.3%, an inhibition at 50 µg/mL [5] of 22.2% and an inhibition at 100 µg/mL [2] of 0%. For the same compound, the inhibition at 20 µg/mL [9] was 83.5%, the inhibition at 100 µg/mL [3] was 0% and the inhibition at 50 µg/mL [6] was 14.7%. It also gave an inhibition at 20 µg/mL [10] of 84.2% and an inhibition at 100 µg/mL [4] of 84.1%.

Work on COc1c(OC)c(OC)c2c3c(cc4ccccc42)NC(=O)c13 [PIPEROLACTAM C] yielded an inhibition at 100 µg/mL [1] of 83.7%, an inhibition at 50 µg/mL [5] of 82% and an inhibition at 100 µg/mL [2] of 0%. It also gave an inhibition at 100 µg/mL [3] of 7.8%, an inhibition at 50 µg/mL [6] of 89.4% and an inhibition at 100 µg/mL [4] of 6.1%.

COc1c(OC)c(OC)c2c3c(cc4ccc(O)cc42)NC(=O)c13 [STIGMALACTAM] gave an inhibition at 100 µg/mL [1] of 91.9%, an inhibition at 50 µg/mL [5] of 30.8% and an inhibition at 100 µg/mL [2] of 10.1%. The inhibition at 20 µg/mL [9] was 46.4%, the inhibition at 100 µg/mL [3] was 14.2% and the inhibition at 50 µg/mL [6] was 18.8%. The inhibition at 20 µg/mL [10] was 72.9% and the inhibition at 100 µg/mL [4] was 70.8%.

COc1cc2c3c(cc4c(O)cccc4c3c1OC)NC2=O [VELUTINAM] showed an inhibition at 100 µg/mL [1] of 92.1%, an inhibition at 50 µg/mL [5] of 65.4% and an inhibition at 100 µg/mL [2] of 18.4%. It also gave an inhibition at 100 µg/mL [3] of 37.5%, an inhibition at 50 µg/mL [6] of 77.5% and an inhibition at 100 µg/mL [4] of 87.3%.
